Assay results reported in ChEMBL document CHEMBL1201862, “PubChem BioAssay data set” (2004).
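In this assay, cells in 96-well plates receive the compound at five concentrations for 48 hours. Endpoints are linearly interpolated between the surrounding concentrations. Abbreviation: GI50, concentration required for 50% inhibition of growth.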 Calls of active or inactive are those of the source. Cut-off read from the data, not from the text of the source: active = GI50 up to about 1.1 µM and inactive = higher.

Columns and labels:
Assay in all cases: NCI-60 cell line screen, 48 h
A498 = tested on: A498
BT-549 = tested on: BT-549
CCRF-CEM = tested on: CCRF-CEM
COLO 205 = tested on: COLO 205
EKVX = tested on: EKVX
HCT-116 = tested on: HCT-116
HT-29 = tested on: HT-29
Hs-578T = tested on: Hs-578T
IGROV-1 = tested on: IGROV-1
K562 = tested on: K562
KM12 = tested on: KM12
LOX IMVI = tested on: LOX IMVI
MDA-MB-231 = tested on: MDA-MB-231
MDA-N = tested on: MDA-N
MOLT-4 = tested on: MOLT-4
Malme-3M = tested on: Malme-3M
NCI-H226 = tested on: NCI-H226
NCI-H460 = tested on: NCI-H460
NCI-H522 = tested on: NCI-H522
NCI/ADR-RES = tested on: NCI/ADR-RES
OVCAR-4 = tested on: OVCAR-4
RPMI-8226 = tested on: RPMI-8226
SF-268 = tested on: SF-268
SF-295 = tested on: SF-295
SF-539 = tested on: SF-539
SK-OV-3 = tested on: SK-OV-3
SN12C = tested on: SN12C
SNB-19 = tested on: SNB-19
SR = tested on: SR
T47D = tested on: T47D
UACC-62 = tested on: UACC-62
786-0 = tested on: 786-0
A549 = tested on: A549
ACHN = tested on: ACHN
CAKI-1 = tested on: CAKI-1
DU-145 = tested on: DU-145
HCC 2998 = tested on: HCC 2998
HCT-15 = tested on: HCT-15
HL-60 = tested on: HL-60
HOP-62 = tested on: HOP-62
HOP-92 = tested on: HOP-92
M14 = tested on: M14
MCF7 = tested on: MCF7
NCI-H23 = tested on: NCI-H23
OVCAR-3 = tested on: OVCAR-3
OVCAR-5 = tested on: OVCAR-5
OVCAR-8 = tested on: OVCAR-8
PC-3 = tested on: PC-3
RXF 393 = tested on: RXF 393
SK-MEL-28 = tested on: SK-MEL-28
SK-MEL-2 = tested on: SK-MEL-2
SK-MEL-5 = tested on: SK-MEL-5
SNB-75 = tested on: SNB-75
SW-620 = tested on: SW-620
TK-10 = tested on: TK-10
U-251 = tested on: U-251
UACC-257 = tested on: UACC-257
UO-31 = tested on: UO-31

COc1ccc2c3c(c4cc(OC)c(OC)cc4c2c1)CN1CCC[C@H]1[C@@H]3O [TYLOPHORININE]
GI50 (A498): < 0.0494 µM (active)
GI50 (BT-549): 0.493 µM (active)
GI50 (CCRF-CEM): < 0.0359 µM (active)
GI50 (COLO 205): 0.039 µM (active)
GI50 (EKVX): < 0.01 µM (active)
GI50 (HCT-116): < 0.0445 µM (active)
GI50 (HT-29): < 0.0289 µM (active)
GI50 (Hs-578T): < 0.0441 µM (active)
GI50 (IGROV-1): < 0.0508 µM (active)
GI50 (K562): 0.0422 µM (active)
GI50 (KM12): < 0.0371 µM (active)
GI50 (LOX IMVI): < 0.01 µM (active)
GI50 (MDA-MB-231): < 0.0489 µM (active)
GI50 (MDA-N): < 0.0404 µM (active)
GI50 (MOLT-4): < 0.0318 µM (active)
GI50 (Malme-3M): 0.249 µM (active)
GI50 (NCI-H226): 0.27 µM (active)
GI50 (NCI-H460): < 0.0474 µM (active)
GI50 (NCI-H522): 0.29 µM (active)
GI50 (NCI/ADR-RES): 0.36 µM (active)
GI50 (OVCAR-4): 0.224 µM (active)
GI50 (RPMI-8226): 0.0676 µM (active)
GI50 (SF-268): < 0.0453 µM (active)
GI50 (SF-295): 0.05 µM (active)
GI50 (SF-539): 0.253 µM (active)
GI50 (SK-OV-3): 0.0733 µM (active)
GI50 (SN12C): < 0.0201 µM (active)
GI50 (SNB-19): < 0.01 µM (active)
GI50 (SR): < 0.0443 µM (active)
GI50 (T47D): < 0.0404 µM (active)
GI50 (UACC-62): < 0.0482 µM (active)

CO/N=C(\C(=O)N(C)n1cnnc1)c1csc(NC(c2ccccc2)(c2ccccc2)c2ccccc2)n1
GI50 (786-0): > 10 µM (inactive)
GI50 (A498): > 10 µM (inactive)
GI50 (A549): > 10 µM (inactive)
GI50 (ACHN): > 10 µM (inactive)
GI50 (BT-549): > 10 µM (inactive)
GI50 (CAKI-1): > 10 µM (inactive)
GI50 (CCRF-CEM): > 10 µM (inactive)
GI50 (COLO 205): > 10 µM (inactive)
GI50 (DU-145): > 10 µM (inactive)
GI50 (EKVX): > 10 µM (inactive)
GI50 (HCC 2998): > 10 µM (inactive)
GI50 (HCT-116): > 10 µM (inactive)
GI50 (HCT-15): > 10 µM
GI50 (HL-60): > 10 µM (inactive)
GI50 (HOP-62): > 10 µM (inactive)
GI50 (HOP-92): > 10 µM (inactive)
GI50 (HT-29): > 10 µM (inactive)
GI50 (Hs-578T): > 10 µM (inactive)
GI50 (IGROV-1): > 10 µM (inactive)
GI50 (K562): > 10 µM (inactive)
GI50 (KM12): > 10 µM (inactive)
GI50 (LOX IMVI): > 10 µM (inactive)
GI50 (M14): > 10 µM (inactive)
GI50 (MCF7): > 10 µM (inactive)
GI50 (MDA-N): > 10 µM (inactive)
GI50 (MOLT-4): > 10 µM (inactive)
GI50 (Malme-3M): > 10 µM (inactive)
GI50 (NCI-H226): > 10 µM (inactive)
GI50 (NCI-H23): > 10 µM (inactive)
GI50 (NCI-H460): > 10 µM (inactive)
GI50 (NCI-H522): > 10 µM (inactive)
GI50 (NCI/ADR-RES): > 10 µM (inactive)
GI50 (OVCAR-3): > 10 µM (inactive)
GI50 (OVCAR-4): > 10 µM (inactive)
GI50 (OVCAR-5): > 10 µM (inactive)
GI50 (OVCAR-8): > 10 µM (inactive)
GI50 (PC-3): > 10 µM (inactive)
GI50 (RPMI-8226): > 10 µM (inactive)
GI50 (RXF 393): > 10 µM (inactive)
GI50 (SF-268): > 10 µM (inactive)
GI50 (SF-295): > 10 µM (inactive)
GI50 (SF-539): > 10 µM (inactive)
GI50 (SK-MEL-28): > 10 µM (inactive)
GI50 (SK-MEL-2): > 10 µM (inactive)
GI50 (SK-MEL-5): > 10 µM (inactive)
GI50 (SK-OV-3): > 10 µM (inactive)
GI50 (SN12C): > 10 µM (inactive)
GI50 (SNB-19): > 10 µM (inactive)
GI50 (SNB-75): > 10 µM (inactive)
GI50 (SR): > 10 µM (inactive)
GI50 (SW-620): > 10 µM (inactive)
GI50 (T47D): > 10 µM (inactive)
GI50 (TK-10): > 10 µM (inactive)
GI50 (U-251): > 10 µM (inactive)
GI50 (UACC-257): > 10 µM (inactive)
GI50 (UO-31): > 10 µM (inactive)
